Measured values taken from ChEMBL document CHEMBL1201862, “PubChem BioAssay data set” (2004).
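Exposure lasted 48 hours, with cells grown in 96-well plates and compounds tested at five concentrations. GI50 is the concentration that inhibits growth by half.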 The source made the active and inactive calls. Cut-off read from the data, not from the text of the source: active = GI50 up to about 1.1 µM and inactive = higher.

How the values were obtained:
Experiment in all cases: inhibition of tumour cell growth, NCI panel, 48 h
[1] = test system: UACC-62
[2] = test system: A498
[3] = test system: SF-539
[4] = test system: SW-620
[5] = test system: MOLT-4
[6] = test system: OVCAR-8
[7] = test system: UACC-257
[8] = test system: SK-MEL-5
[9] = test system: HCC 2998
[10] = test system: TK-10
[11] = test system: NCI-H226
[12] = test system: KM12
[13] = test system: 786-0
[14] = test system: PC-3
[15] = test system: T47D
[16] = test system: SR
[17] = test system: HOP-92
[18] = test system: SK-MEL-2
[19] = test system: DU-145
[20] = test system: U-251

SMILES	GI50 [1]	GI50 [2]	GI50 [3]	GI50 [4]	GI50 [5]	GI50 [6]	GI50 [7]	GI50 [8]	GI50 [9]	GI50 [10]	GI50 [11]	GI50 [12]	GI50 [13]	GI50 [14]	GI50 [15]	GI50 [16]	GI50 [17]	GI50 [18]	GI50 [19]	GI50 [20]
CC1(C)C(c2ccccc2)=[N+]([O-])C(C)(C)N1O	> 10 µM (inactive)	> 10 µM (inactive)	> 10 µM (inactive)	> 10 µM (inactive)	> 10 µM (inactive)	> 10 µM (inactive)	> 10 µM (inactive)	> 10 µM (inactive)	> 10 µM (inactive)	> 10 µM (inactive)	> 10 µM (inactive)	> 10 µM (inactive)	> 10 µM (inactive)	> 10 µM (inactive)	> 10 µM (inactive)	> 10 µM (inactive)	> 10 µM (inactive)	> 10 µM (inactive)	> 10 µM (inactive)	> 10 µM (inactive)
FC(F)(F)c1cccnc1Sc1nc2ccccc2s1	> 100 µM (inactive)	> 100 µM (inactive)	> 100 µM (inactive)	> 100 µM (inactive)	52.1 µM (inactive)	> 100 µM (inactive)	> 100 µM (inactive)	> 100 µM (inactive)	> 100 µM (inactive)	> 100 µM (inactive)	2.67 µM (inactive)	> 100 µM (inactive)	> 100 µM (inactive)	> 100 µM (inactive)	> 100 µM (inactive)	30.9 µM (inactive)	16.3 µM (inactive)	20.7 µM (inactive)	> 100 µM (inactive)	> 100 µM (inactive)
COC(=O)C1CCC(=O)N1C(c1ccccc1)c1ccc(OC)c(OC)c1 (centres undefined)	> 100 µM (inactive)	> 100 µM (inactive)	> 100 µM (inactive)	> 100 µM (inactive)	> 10 µM (inactive)	> 100 µM (inactive)	> 100 µM (inactive)	> 100 µM (inactive)	> 100 µM (inactive)	> 100 µM (inactive)	> 100 µM (inactive)	> 100 µM (inactive)	> 100 µM (inactive)	> 100 µM (inactive)	> 100 µM (inactive)	> 100 µM (inactive)	> 100 µM (inactive)	> 100 µM (inactive)	> 100 µM (inactive)	> 100 µM (inactive)
O=C(N(C1=CCCC1)N(c1ccccc1)c1ccccc1)C(F)(F)F	25.8 µM (inactive)	51.8 µM (inactive)	20.2 µM (inactive)	20.2 µM (inactive)	14 µM (inactive)	29.9 µM (inactive)	21.6 µM (inactive)	16.3 µM (inactive)	18.2 µM (inactive)	39.9 µM (inactive)	19.7 µM (inactive)	18.1 µM (inactive)	27.7 µM (inactive)	30.3 µM (inactive)	17 µM (inactive)	31 µM (inactive)	10.5 µM (inactive)	17.1 µM (inactive)	30.8 µM (inactive)	19.8 µM (inactive)
O=C1C=Cc2c(Cl)sc(Cl)c21	3.01 µM (inactive)	4.06 µM (inactive)	1.48 µM (inactive)	0.845 µM (active)	0.12 µM (active)	1.6 µM (inactive)	2.03 µM (inactive)	2.11 µM (inactive)	5.38 µM (inactive)	2.24 µM (inactive)	6.4 µM (inactive)	0.883 µM (active)	0.94 µM (active)	1.88 µM (inactive)	1.81 µM (inactive)	0.347 µM (active)	1.5 µM (inactive)	2.2 µM (inactive)	2.32 µM (inactive)	2.99 µM (inactive)
CC(=O)OCC1OC(n2c(C)cc(C)c(C#N)c2=S)C(OC(C)=O)C(OC(C)=O)C1OC(C)=O (centres undefined)	> 100 µM (inactive)	> 100 µM (inactive)	> 100 µM (inactive)		> 100 µM (inactive)	> 100 µM (inactive)	> 100 µM (inactive)	> 100 µM (inactive)	> 100 µM (inactive)	> 100 µM (inactive)	> 100 µM (inactive)	> 100 µM (inactive)	> 100 µM (inactive)	> 100 µM (inactive)	> 100 µM (inactive)	> 100 µM (inactive)	> 100 µM (inactive)	> 100 µM (inactive)	> 100 µM (inactive)	> 100 µM (inactive)
